Reference: ChEMBL document CHEMBL3885861, “Open TG-GATES”

Organism: Rattus norvegicus
Assay: Open TG-GATES - Regimen: Daily Repeat
Format: toxicity, organism-based, Sprague-Dawley
Set-up: regimen Daily Repeat, gender Male, age 6 weeks
Details: in vivo, po, 0 mg/kg, route gavage, dose level Control; for APTT / Bas / Eos / Fbg / Hb / Ht / Lym / MCH / MCHC / MCV / Mono / Neu / PT / Plat / RBC / Ret / WBC: tissue Blood; for KIDNEY_L / KIDNEY_R / KIDNEY_TOTAL: tissue Kidney; for LIVER: tissue Liver; for A/G / ALP / ALT / AST / BUN / CRE / Ca / Cl / DBIL / GLC / IP / K / LDH / Na / PL / RALB / TBIL / TC / TG / TP / gamma-GTP: tissue Plasma

What does the source list for `O=C(O)c1ccccc1Nc1ccccc1` [FENAMIC ACID]?
TERMINAL_BW (72 h, time 3 day): 237 g; APTT (72 h, time 3 day): 16.2 s; Bas (72 h, time 3 day): 0.4%; Eos (72 h, time 3 day): 1.2%; Fbg (72 h, time 3 day): 270.2 mg/dL; Hb (72 h, time 3 day): 13.9 g/dL; Ht (72 h, time 3 day): 41.7%; Lym (72 h, time 3 day): 75.2%; MCH (72 h, time 3 day): 20.9 pg; MCHC (72 h, time 3 day): 33.3%; MCV (72 h, time 3 day): 62.7 fL; Mono (72 h, time 3 day): 2.6%; Neu (72 h, time 3 day): 20.6%; PT (72 h, time 3 day): 14.3 s; Plat (72 h, time 3 day): 121.2 x10_4/uL; RBC (72 h, time 3 day): 664.6 x10_4/ul; Ret (72 h, time 3 day): 6.5%; WBC (72 h, time 3 day): 95.3 x10_2/uL; KIDNEY_L (72 h, time 3 day): 1 g; KIDNEY_R (72 h, time 3 day): 1 g; KIDNEY_TOTAL (72 h, time 3 day): 2 g; LIVER (72 h, time 3 day): 10.9 g; A/G (72 h, time 3 day): 0.9; ALP (72 h, time 3 day): 1663.4 IU/L; ALT (72 h, time 3 day): 35.4 IU/L; AST (72 h, time 3 day): 63.4 IU/L; BUN (72 h, time 3 day): 13.2 mg/dL; CRE (72 h, time 3 day): 0.2 mg/dL; Ca (72 h, time 3 day): 11.6 mg/dL; Cl (72 h, time 3 day): 106.8 meq/L; DBIL (72 h, time 3 day): 0.01 mg/dL; GLC (72 h, time 3 day): 185.8 mg/dL; IP (72 h, time 3 day): 7.2 mg/dL; K (72 h, time 3 day): 4.3 meq/L; LDH (72 h, time 3 day): 97.8 IU/L; Na (72 h, time 3 day): 143.8 meq/L; PL (72 h, time 3 day): 147.4 mg/dL; RALB (72 h, time 3 day): 2.7 g/dL; TBIL (72 h, time 3 day): 0.044 mg/dL; TC (72 h, time 3 day): 73.4 mg/dL; TG (72 h, time 3 day): 91.8 mg/dL; TP (72 h, time 3 day): 5.7 g/dL; gamma-GTP (72 h, time 3 day): 1.6 IU/L; TERMINAL_BW ([…], time 7 day): 271.7 g; TERMINAL_BW ([…], time 14 day): 334.6 g; TERMINAL_BW ([…], time 28 day): 425.8 g; APTT ([…], time 7 day): 16.2 s; Bas ([…], time 7 day): 0.8%; Eos ([…], time 7 day): 1%; Fbg ([…], time 7 day): 278.2 mg/dL; Hb ([…], time 7 day): 13.5 g/dL; Ht ([…], time 7 day): 40.3%; Lym ([…], time 7 day): 80.2%; MCH ([…], time 7 day): 20.5 pg; MCHC ([…], time 7 day): 33.5%; MCV ([…], time 7 day): 61 fL; Mono ([…], time 7 day): 2.2%; Neu ([…], time 7 day): 15.6%; PT ([…], time 7 day): 13.8 s; Plat ([…], time 7 day): 118.4 x10_4/uL; RBC ([…], time 7 day): 661.2 x10_4/ul; Ret ([…], time 7 day): 5.4%; WBC ([…], time 7 day): 84.5 x10_2/uL; APTT ([…], time 14 day): 16.3 s; Bas ([…], time 14 day): 0.4%; Eos ([…], time 14 day): 1%; Fbg ([…], time 14 day): 296.2 mg/dL; Hb ([…], time 14 day): 14.5 g/dL; Ht ([…], time 14 day): 42.3%; Lym ([…], time 14 day): 82.6%; MCH ([…], time 14 day): 20.2 pg; MCHC ([…], time 14 day): 34.2%; MCV ([…], time 14 day): 59.2 fL; Mono ([…], time 14 day): 1.8%; Neu ([…], time 14 day): 14.2%; PT ([…], time 14 day): 14.1 s; Plat ([…], time 14 day): 112.2 x10_4/uL; RBC ([…], time 14 day): 714.8 x10_4/ul; Ret ([…], time 14 day): 4%; WBC ([…], time 14 day): 73.8 x10_2/uL; APTT ([…], time 28 day): 15.8 s; Bas ([…], time 28 day): 0.2%; Eos ([…], time 28 day): 1%; Fbg ([…], time 28 day): 296 mg/dL; Hb ([…], time 28 day): 14.9 g/dL; Ht ([…], time 28 day): 43%; Lym ([…], time 28 day): 79.2%; MCH ([…], time 28 day): 19.4 pg; MCHC ([…], time 28 day): 34.6%; MCV ([…], time 28 day): 55.9 fL; Mono ([…], time 28 day): 1.6%; Neu ([…], time 28 day): 17.2%; PT ([…], time 28 day): 14.2 s; Plat ([…], time 28 day): 104.1 x10_4/uL; RBC ([…], time 28 day): 768.8 x10_4/ul; Ret ([…], time 28 day): 2.7%; WBC ([…], time 28 day): 92.6 x10_2/uL; KIDNEY_L ([…], time 7 day): 1.1 g; KIDNEY_R ([…], time 7 day): 1.1 g; KIDNEY_TOTAL ([…], time 7 day): 2.2 g; KIDNEY_L ([…], time 14 day): 1.3 g; KIDNEY_R ([…], time 14 day): 1.3 g; KIDNEY_TOTAL ([…], time 14 day): 2.5 g; KIDNEY_L ([…], time 28 day): 1.5 g; KIDNEY_R ([…], time 28 day): 1.5 g; KIDNEY_TOTAL ([…], time 28 day): 2.9 g; LIVER ([…], time 7 day): 12.7 g; LIVER ([…], time 14 day): 14.7 g; LIVER ([…], time 28 day): 17 g; A/G ([…], time 7 day): 0.9; ALP ([…], time 7 day): 1493 IU/L; ALT ([…], time 7 day): 38 IU/L; AST ([…], time 7 day): 68.4 IU/L; BUN ([…], time 7 day): 14.2 mg/dL; CRE ([…], time 7 day): 0.2 mg/dL; Ca ([…], time 7 day): 11.4 mg/dL; Cl ([…], time 7 day): 106.2 meq/L; DBIL ([…], time 7 day): 0.01 mg/dL; GLC ([…], time 7 day): 190.4 mg/dL; IP ([…], time 7 day): 6.7 mg/dL; K ([…], time 7 day): 4.3 meq/L; LDH ([…], time 7 day): 105 IU/L; Na ([…], time 7 day): 143.2 meq/L; PL ([…], time 7 day): 148.4 mg/dL; RALB ([…], time 7 day): 2.6 g/dL; TBIL ([…], time 7 day): 0.03 mg/dL; TC ([…], time 7 day): 73 mg/dL; TG ([…], time 7 day): 119.4 mg/dL; TP ([…], time 7 day): 5.7 g/dL; gamma-GTP ([…], time 7 day): 1 IU/L; A/G ([…], time 14 day): 0.8; ALP ([…], time 14 day): 1698.4 IU/L; ALT ([…], time 14 day): 36 IU/L; AST ([…], time 14 day): 63.2 IU/L; BUN ([…], time 14 day): 13.8 mg/dL; CRE ([…], time 14 day): 0.3 mg/dL; Ca ([…], time 14 day): 11.2 mg/dL; Cl ([…], time 14 day): 105.2 meq/L; DBIL ([…], time 14 day): 0.004 mg/dL; GLC ([…], time 14 day): 184 mg/dL; IP ([…], time 14 day): 7.1 mg/dL; K ([…], time 14 day): 4 meq/L; LDH ([…], time 14 day): 78.2 IU/L; Na ([…], time 14 day): 144 meq/L; PL ([…], time 14 day): 143.2 mg/dL; RALB ([…], time 14 day): 2.7 g/dL; TBIL ([…], time 14 day): 0.032 mg/dL; TC ([…], time 14 day): 68.6 mg/dL; TG ([…], time 14 day): 108.6 mg/dL; TP ([…], time 14 day): 5.9 g/dL; gamma-GTP ([…], time 14 day): 1 IU/L; A/G ([…], time 28 day): 0.8; ALP ([…], time 28 day): 1171.8 IU/L; ALT ([…], time 28 day): 32.4 IU/L; AST ([…], time 28 day): 58.2 IU/L; BUN ([…], time 28 day): 14.8 mg/dL; CRE ([…], time 28 day): 0.3 mg/dL; Ca ([…], time 28 day): 11.1 mg/dL; Cl ([…], time 28 day): 105.2 meq/L; DBIL ([…], time 28 day): 0.006 mg/dL; GLC ([…], time 28 day): 192.8 mg/dL; IP ([…], time 28 day): 6.9 mg/dL; K ([…], time 28 day): 4 meq/L; LDH ([…], time 28 day): 104 IU/L; Na ([…], time 28 day): 144.4 meq/L; PL ([…], time 28 day): 133.8 mg/dL
